Entries after “also recorded” stand apart in the source; their conditions may differ.
How the values were obtained:
[1] = tested on: ischemia-reperfusion injury (AMI, LAD occlusion); assay: Swine AMI model: intracoronary elamipretide before VA-ECMO, reperfusion delayed 30 minutes, then 180 minutes of reperfusion; type: in vivo
Protocol: To begin exploring whether stabilizing CL activity can limit myocardial infarct size during VA-ECMO support for AMI, we employed an over-the-wire coronary angioplasty balloon to delivery elamipretide into the area at risk while maintaining occlusion of the LAD. We treated adult male swine with a single IC injection of either elamipretide (0.05 ug/kg/minute IC over 10 minutes) or vehicle prior to initiating VA-ECMO and then delayed coronary reperfusion for 30 minutes, thereby allowing the drug to reach the area at risk and stabilize CL. Elamipretide was continued as an IV infusion (0.05 ug/kg/minute) during 180 minutes of reperfusion. […] Elamipretide dosing was based on prior reports (Kloner et al., J. Am. Heart Assoc. 1(3):e001644, 2012; Gibson et al., Eur. Heart J. 37(16):1296-1303, 2016).

[2] = tested on: LV infarct scar after AMI; assay: Late-term outcomes in swine 28 days after AMI with VA-ECMO, with or without cardioprotective drug; type: in vivo; settings: at 30 days; VA-ECMO + elamipretide vs reperfusion alone or VA-ECMO alone before reperfusion; FIG. 6
Protocol: To explore late-term outcomes after VA-ECMO with or without cardioprotective drug therapy in AMI, we decannulated, recovered, and monitored swine for 28 days after peripheral cannulation for VA-ECMO support. Adult male swine were subjected to coronary occlusion followed by reperfusion alone or VA-ECMO before reperfusion for 180 minutes. In a separate group, swine were treated with a cardioprotective agent before initiation of VA-ECMO with a 30-minute delay to reperfusion. After 28 days, we identified for the first time that compared to reperfusion alone, VA-ECMO increases infarct scar size and impairs LV function after AMI (FIGS. 5A and 5B). […] These findings support our central hypothesis that VA-ECMO promotes LV scar after AMI and further that treatment with a cardioprotective agent reduces LV scar size 30 days after AMI, which may have broad reaching implications for any patient with acute myocardial infarction or patients at risk of developing cardiac impairment while receiving VA-ECMO. Broad groups of patients may be treated using this approach including, e.g., all AMI patients and all patients treated with VA-ECMO. Indications include, for example, cardiogenic shock, heart failure, lung failure, myocarditis, trauma, and arrhythmia. […] (FIG. 6).

[3] = tested on: anterior ST-segment elevation myocardial infarction; settings: IV elamipretide given before reperfusion; cited from earlier work
cardiolipin = assay: Mitochondrial cardiolipin in the infarct zone, swine IRI with ECMO / EC-Pella (FIGS. 9C-9D); type: in vivo; settings: to a similar degree as pre-emptive ECPella
Protocol: Ischemia-reperfusion injury (IRI) was induced in adult swine via percutaneous occlusion of the left anterior descending artery (LAD) for 90 minutes, followed by activation of either ECMO alone for 30 minutes or EC-Pella for 45 minutes with persistent LAD occlusion. All groups underwent 180 minutes of reperfusion (n=4-6/group). To study whether the sequence of device activation impacts infarct size, we compared activation of ECMO alone for 30 minutes followed by simultaneous Impella CP for 15 minutes (Bailout EC-Pella) versus Impella CP activation for 30 minutes followed by simultaneous ECMO for 15 minutes (Pre-emptive EC-Pella) before reperfusion. LV hemodynamics and ventriculo-arterial (VA) coupling were assessed.
Compared to IRI and ECMO alone, EC-Pella decreased PVA when applied as pre-emptive ECPella but not Bailout ECPella (FIG. 7). Both EC-Pella configurations decreased infarct size (FIG. 8A), increased cardioprotective signaling via the reperfusion injury salvage kinase pathway (FIG. 8B), and reduced apoptosis and pro-apoptotic signaling (FIG. 8C). Pre-emptive, but not bailout, ECPella preserved mitochondrial […] tafazzin levels (FIGS. 9A-B), increased mitochondrial cardiolipin levels (FIG. 9C), and reduced the ratio of immature: mature cardiolipin (MLCL: CL ratio; FIG. 9D) within the infarct zone compared to ECMO alone.

[4] = elamipretide plus VA-ECMO, FIG. 4C

Substance: D-Arg-2′,6′-Dmt-Lys-Phe-NH2 [elamipretide]
- reduction of infarct size compared to IRI plus VA-ECMO support ([1]; adult male swine, 0.05 ug/kg/minute IC over 10 minutes before VA-ECMO, reperfusion delayed 30 minutes, IV infusion during 180 minutes reperfusion, vs vehicle): 70%
- reduction of infarct size compared to IRI alone ([1]; adult male swine, elamipretide IC before VA-ECMO, reperfusion delayed 30 minutes): 55%
- infarct size compared to reperfusion without VA-ECMO (in words) ([1]; elamipretide before initiation of VA-ECMO): significantly reduces infarct size
- MLCL:CL ratio in the infarct zone ([1]; elamipretide plus VA-ECMO, FIG. 4B): decreased
- H202 levels in the infarct zone [1, 4]: decreased
- mitochondrial protease activity in the infarct zone [1, 4]: decreased
- ETC complex function ([1]; elamipretide plus VA-ECMO, FIG. 4E): improved ETC complex function
- infarct size compared to IRI alone, elamipretide without VA-ECMO ([1]; elamipretide treatment without VA-ECMO, FIG. 4A): failed to reduce infarct size; also recorded: did not reduce infarct size
- infarct (LV) scar size [2]: reduced infarct scar size; also recorded: can limit LV scar size
- infarct size in humans (EMBRACE-STEMI Trial) [3]: failed to reduce infarct size
- mitochondrial cardiolipin levels in the infarct zone (cardiolipin; FIG. 9C): increases cardiolipin
- mono-lysl cardiolipin: mature cardiolipin (MLCL:CL) ratio in the infarct zone (cardiolipin; FIG. 9D): reduces

— US20250276116A1, “METHODS OF […] DUE TO EXTR[…] OXYGENATION” (Tufts Medical Center, Inc., priority 2021, published 2025)
